Assay results published in US20230391760A1, “HETEROCYCLIC GLP-1 AGONISTS” (Gasherbrum Bio, Inc., priority 2020, published 2023).

Molecular target: GLP-1 Receptor (Homo sapiens, UniProt P43220)
Test: GLP-1R agonist cAMP stimulation assay (HEK293/GLP1R/CRE-LUC cells, cAMP dynamic 2 Kit)
Assay type: cell-based
Conditions: HEK293/CRE-Luc cell line stably expressing the GLP-1 Receptor, 30 min at 37° C.
Outline: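 cAMP measured by HTRF competition (d2-labelled cAMP with cryptate antibody, 1 h, room temperature, protected from light). Before that, GLP1R/CRE-Luc HEK293 cells (1000/well) were exposed for 30 min at 37 °C to half-log compound dilutions in DPBS containing IBMX 0.5 mM and BSA 0.1%.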

GLP-1 Receptor, sequence (P43220 24-463, species assumed): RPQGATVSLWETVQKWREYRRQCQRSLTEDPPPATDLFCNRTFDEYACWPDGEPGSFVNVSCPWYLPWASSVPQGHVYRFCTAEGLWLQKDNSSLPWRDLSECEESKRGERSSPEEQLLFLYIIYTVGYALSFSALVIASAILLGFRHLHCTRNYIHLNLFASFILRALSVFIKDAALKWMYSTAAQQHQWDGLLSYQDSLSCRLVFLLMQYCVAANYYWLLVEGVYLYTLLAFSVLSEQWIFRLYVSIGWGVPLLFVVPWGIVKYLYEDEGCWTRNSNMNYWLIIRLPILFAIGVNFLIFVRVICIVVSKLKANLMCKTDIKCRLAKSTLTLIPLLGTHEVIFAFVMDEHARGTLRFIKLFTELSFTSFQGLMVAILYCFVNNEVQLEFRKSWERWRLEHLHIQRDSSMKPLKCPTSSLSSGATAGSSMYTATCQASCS

EC50 [nM]	Structure (SMILES)
0.0048	C[C@]1(c2ccc(Cl)cn2)Oc2cccc(C3CCN(Cc4nc5cc(-c6nnc(C#N)[nH]6)ncc5n4C[C@@H]4CCO4)CC3)c2O1 [Compound 481a, 5-[2-({4-[(2S)-2-(5-chloropyridin-2-yl)-2-methyl-2H-1,3-benzodioxol-4-yl]piperidin-1-yl}methyl)-3-{[(2S)-oxetan-2-yl]methyl}-3H-imidazo[4,5-c]pyridin-6-yl]-4H-1,2,4-triazole-3-carbonitrile]
0.36	O=c1[nH]c(-c2ccc3c(c2)nc(CC2CC=C(c4nc(OCc5ccc(Cl)cc5F)ncc4F)CC2)n3C[C@@H]2CCO2)no1 (stereo partly drawn) [Compound 242a, 3-(2-((4-(2-((4-chloro-2-fluorobenzyl)oxy)-5-fluoropyrimidin-4-yl)cyclohex-3-en-1-yl)methyl)-1-(((S)-oxetan-2-yl)methyl)-1H-benzo[d]imidazol-5-yl)-1,2,4-oxadiazol-5(4H)-one]
4.2	O=C(O)c1c[nH]nc1-c1ccc2c(c1)nc(CN1CCC(c3cccc(OCc4ccc(Cl)cc4F)n3)CC1)n2C[C@@H]1CCO1 [Compound 214a, 3-{2-[(4-{6-[(4-chloro-2-fluorophenyl)methoxy]pyridin-2-yl}piperidin-1-yl)methyl]-1-{[(2S)-oxetan-2-yl]methyl}-1H-1,3-benzodiazol-5-yl}-1H-pyrazole-4-carboxylic acid]
0.068	N#Cc1ccc(COc2nccc(C3CCN(Cc4nc5cc(-c6nnc(C(F)(F)F)[nH]6)ncc5n4C[C@@H]4CCO4)CC3)n2)c(F)c1 [Compound 507a, 3-fluoro-4-{[(4-{1-[(3-{[(2S)-oxetan-2-yl]methyl}-6-[5-(trifluoromethyl)-4H-1,2,4-triazol-3-yl]-3H-imidazo[4,5-c]pyridin-2-yl)methyl]piperidin-4-yl}pyrimidin-2-yl)oxy]methyl}benzonitrile]
0.75	COCCn1c(CN2CCC(c3cccc4c3OC(C)(c3ccc(Cl)cc3F)O4)CC2)nc2cc(-c3nnc(C(F)(F)F)[nH]3)cnc21 (stereo not shown) [Compound 402, 4-[2-(4-chloro-2-fluorophenyl)-2-methyl-2H-1,3-benzodioxol-4-yl]-1-{[3-(2-methoxyethyl)-6-[5-(trifluoromethyl)-4H-1,2,4-triazol-3-yl]-3H-imidazo[4,5-b]pyridin-2-yl]methyl}piperidine]
0.011	C[C@]1(c2ccc(Cl)cc2F)Oc2cccc(C3CCN(Cc4nc5cc(-c6nnc(C#N)[nH]6)nnc5n4C[C@@H]4CCO4)CC3)c2O1 [Compound 448a, 5-[6-({4-[(2S)-2-(4-chloro-2-fluorophenyl)-2-methyl-2H-1,3-benzodioxol-4-yl]piperidin-1-yl}methyl)-7-{[(2S)-oxetan-2-yl]methyl}-7H-imidazo[4,5-c]pyridazin-3-yl]-4H-1,2,4-triazole-3-carbonitrile]
0.029	C[C@]1(c2ccc(Cl)cn2)Oc2cccc(C3CCN(Cc4nc5cc(-c6n[nH]c(C(F)(F)F)n6)cnc5n4C[C@@H]4CCO4)CC3)c2O1 (single isomer, unassigned) [Compound 333b]
0.45	CC1(c2ccc(Cl)cn2)Oc2c(F)ccc(C3CCN(Cc4nc5cc(-c6nnc(C(F)(F)F)[nH]6)nnc5n4C[C@@H]4CCO4)CC3)c2O1 (stereo partly drawn) [Compound 524a, 5-chloro-2-[4-fluoro-2-methyl-7-{1-[(7-{[(2S)-oxetan-2-yl]methyl}-3-[5-(trifluoromethyl)-4H-1,2,4-triazol-3-yl]-7H-imidazo[4,5-c]pyridazin-6-yl)methyl]piperidin-4-yl}-2H-1,3-benzodioxol-2-yl]pyridine]
0.038	Fc1cc(Cl)ccc1COc1cccc(C2CCN(Cc3nc4cc(-c5nnc(C(F)(F)F)[nH]5)nnc4n3C[C@@H]3CCO3)CC2)n1 [Compound 486a, 2-[(4-chloro-2-fluorophenyl)methoxy]-6-{1-[(7-{[(2S)-oxetan-2-yl]methyl}-3-[5-(trifluoromethyl)-4H-1,2,4-triazol-3-yl]-7H-imidazo[4,5-c]pyridazin-6-yl)methyl]piperidin-4-yl}pyridine]
7.4	O=C(Nc1ccc2c(c1)nc(CN1CCC(c3cccc(OCc4ccc(Cl)cc4F)n3)CC1)n2C[C@@H]1CCO1)C1(C2CC2)CCCO1 (stereo partly drawn) [Compound 199a, N-{2-[(4-{6-[(4-chloro-2-fluorophenyl)methoxy]pyridin-2-yl}piperidin-1-yl)methyl]-1-{[(2S)-oxetan-2-yl]methyl}-1H-1,3-benzodiazol-5-yl}-2-cyclopropyloxolane-2-carboxamide]
0.093	CO[C@H](C)Cn1c(CN2CCC(c3cccc4c3O[C@@](C)(c3ccc(Cl)cc3F)O4)CC2)nc2cc(-c3nnc(C(F)(F)F)[nH]3)cnc21 [Compound 247b, 4-[(2S)-2-(4-chloro-2-fluorophenyl)-2-methyl-2H-1,3-benzodioxol-4-yl]-1-({3-[(2R)-2-methoxypropyl]-6-[5-(trifluoromethyl)-4H-1,2,4-triazol-3-yl]-3H-imidazo[4,5-b]pyridin-2-yl}methyl)piperidine]
3.7	CC1(c2ccc(Cl)cc2F)Oc2cccc(C3CCN(Cc4nc5cc(-c6noc(=O)[nH]6)cnc5n4C[C@H]4CCOC4)CC3)c2O1 (stereo partly drawn) [Compound 400a, 3-[2-({4-[2-(4-chloro-2-fluorophenyl)-2-methyl-2H-1,3-benzodioxol-4-yl]piperidin-1-yl}methyl)-3-{[(3R)-oxolan-3-yl]methyl}-3H-imidazo[4,5-b]pyridin-6-yl]-4,5-dihydro-1,2,4-oxadiazol-5-one]
0.043	Cc1ncccc1C(=O)Nc1ccc2c(c1)nc(CN1CCC(c3cccc(OCc4ccc(Cl)cc4F)n3)CC1)n2C[C@@H]1CCO1 [Compound 188a, N-{2-[(4-{6-[(4-chloro-2-fluorophenyl)methoxy]pyridin-2-yl}piperidin-1-yl)methyl]-1-{[(2S)-oxetan-2-yl]methyl}-1H-1,3-benzodiazol-5-yl}-2-methylpyridine-3-carboxamide]
0.087	C[C@H]1CN(c2ncc(F)c(OCc3ccc(Cl)cc3F)n2)CCN1Cc1nc2cc(-c3nnc(C(F)(F)F)[nH]3)ncc2n1C[C@@H]1CCO1 [Compound 489a, 4-[(4-chloro-2-fluorophenyl)methoxy]-5-fluoro-2-[(3S)-3-methyl-4-[(3-{[(2S)-oxetan-2-yl]methyl}-6-[5-(trifluoromethyl)-4H-1,2,4-triazol-3-yl]-3H-imidazo[4,5-c]pyridin-2-yl)methyl]piperazin-1-yl]pyrimidine]
0.15	CC1(c2ccc(C#N)cc2F)Oc2cccc(C3CCN(Cc4nc5cc(-c6nnc(C7CC7)[nH]6)ccc5n4C[C@@H]4CCO4)CC3)c2O1 (stereo partly drawn) [Compound 277a, 4-[4-(1-{[5-(5-cyclopropyl-4H-1,2,4-triazol-3-yl)-1-{[(2S)-oxetan-2-yl]methyl}-1H-1,3-benzodiazol-2-yl]methyl}piperidin-4-yl)-2-methyl-2H-1,3-benzodioxol-2-yl]-3-fluorobenzonitrile]
0.016	C[C@]1(c2ccc(Cl)cn2)Oc2cccc(C3CCN(Cc4nc5cc(-c6nnn[nH]6)ncc5n4C[C@@H]4CCO4)CC3)c2O1 [Compound 449a, 5-chloro-2-[(2S)-2-methyl-4-{1-[(3-{[(2S)-oxetan-2-yl]methyl}-6-(1H-1,2,3,4-tetrazol-5-yl)-3H-imidazo[4,5-c]pyridin-2-yl)methyl]piperidin-4-yl}-2H-1,3-benzodioxol-2-yl]pyridine]
2.8	O=c1[nH]c(-c2cnc3c(c2)nc(CN2CC=C(c4ccc(F)c(OCc5ccc(Cl)cc5F)c4)CC2)n3C[C@@H]2CCO2)no1 [Compound 293a, 3-{2-[(4-{3-[(4-chloro-2-fluorophenyl)methoxy]-4-fluorophenyl}-1,2,3,6-tetrahydropyridin-1-yl)methyl]-3-{[(2S)-oxetan-2-yl]methyl}-3H-imidazo[4,5-b]pyridin-6-yl}-4,5-dihydro-1,2,4-oxadiazol-5-one]
0.56	CCc1ccc(C(=O)Nc2ccc3c(c2)nc(CN2CCC(c4cccc(OCc5ccc(Cl)cc5F)n4)CC2)n3C[C@@H]2CCO2)cn1 [Compound 174a, N-{2-[(4-{6-[(4-chloro-2-fluorophenyl)methoxy]pyridin-2-yl}piperidin-1-yl)methyl]-1-{[(2S)-oxetan-2-yl]methyl}-1H-1,3-benzodiazol-5-yl}-6-ethylpyridine-3-carboxamide]
1	O=C(Nc1ccc2c(c1)nc(CN1CCC(c3cccc(OCc4ccc(Cl)cc4F)n3)CC1)n2C[C@@H]1CCO1)C1CCCCO1 (stereo partly drawn) [Compound 155a, N-{2-[(4-{6-[(4-chloro-2-fluorophenyl)methoxy]pyridin-2-yl}piperidin-1-yl)methyl]-1-{[(2S)-oxetan-2-yl]methyl}-1H-1,3-benzodiazol-5-yl}oxane-2-carboxamide]
0.91	Fc1cc(Cl)ccc1COc1cccc(C2CCN(Cc3nc4cc(-c5nnc[nH]5)ncc4n3C[C@@H]3CCO3)CC2)n1 [Compound 436a, 2-[(4-chloro-2-fluorophenyl)methoxy]-6-{1-[(3-{[(2S)-oxetan-2-yl]methyl}-6-(4H-1,2,4-triazol-3-yl)-3H-imidazo[4,5-c]pyridin-2-yl)methyl]piperidin-4-yl}pyridine]
0.15	O=c1[nH]c(-c2cc3nc(CN4CCC(c5ccnc(OCc6ccc(Cl)cc6F)n5)CC4)n(C[C@@H]4CCO4)c3cn2)no1 [Compound 460a, 3-{2-[(4-{2-[(4-chloro-2-fluorophenyl)methoxy]pyrimidin-4-yl}piperidin-1-yl)methyl]-3-{[(2S)-oxetan-2-yl]methyl}-3H-imidazo[4,5-c]pyridin-6-yl}-4,5-dihydro-1,2,4-oxadiazol-5-one]
0.086	Fc1cc(Cl)ccc1COc1nc(N2CCN(Cc3nc4cc(-c5nnc(C(F)(F)F)[nH]5)ncc4n3C[C@@H]3CCO3)CC2)ncc1F [Compound 490a, 4-[(4-chloro-2-fluorophenyl)methoxy]-5-fluoro-2-{4-[(3-{[(2S)-oxetan-2-yl]methyl}-6-[5-(trifluoromethyl)-4H-1,2,4-triazol-3-yl]-3H-imidazo[4,5-c]pyridin-2-yl)methyl]piperazin-1-yl}pyrimidine]
